The values that follow come from patent US8633315B2, “Substituted hydroxyethyl amine compounds as beta-secretase modulators and methods of use” (Amgen Inc., priority 2007, dated 2014).

For one assay, the target named is BACE1 (Homo sapiens, UniProt P56817). As to the kind of experiment: In vitro enzymatic BACE FRET (fluorescence resonance energy transfer) assay. The format is biochemical. Put shortly: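 Fluorescence (ex 488 nm, […]) was read after Tris addition raised pH to neutral, ending a one-hour incubation. Reaction started with 50 nM fluorophore/quencher peptide substrate in pH 4.2 acetate (0.05 M) containing 100 uM genapol and 10% DMSO final.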

The test system of assay [1] is Cells stably expressing Amyloid Precursor Protein (APP). As to the kind of experiment: In vitro BACE cell-based assay (HEK cell assay): Aβ40 in conditioned medium by sandwich ELISA. The procedure, abridged: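 Secreted Aβ40 was quantified by time-resolved fluorescence sandwich ELISA, capturing with pAb40 for 3 h at 4 °C and detecting with biotinylated 6E10 for 2 h at 4 °C. Media came from APP-expressing cells exposed 24 h to compounds (10-point series from 100 or 10 μM, 0.1% DMSO); IC50 derived from percent of control.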
Background: ELISA stands for enzyme-linked immunosorbent assay.

[2] abbreviates: Homo sapiens, HEK293, 24 h, Aβ40 in conditioned medium after 24 h incubation.

Read-outs that look alike come from different tables or passages of the source.

Chain of BACE1 (P56817 46-501, species assumed): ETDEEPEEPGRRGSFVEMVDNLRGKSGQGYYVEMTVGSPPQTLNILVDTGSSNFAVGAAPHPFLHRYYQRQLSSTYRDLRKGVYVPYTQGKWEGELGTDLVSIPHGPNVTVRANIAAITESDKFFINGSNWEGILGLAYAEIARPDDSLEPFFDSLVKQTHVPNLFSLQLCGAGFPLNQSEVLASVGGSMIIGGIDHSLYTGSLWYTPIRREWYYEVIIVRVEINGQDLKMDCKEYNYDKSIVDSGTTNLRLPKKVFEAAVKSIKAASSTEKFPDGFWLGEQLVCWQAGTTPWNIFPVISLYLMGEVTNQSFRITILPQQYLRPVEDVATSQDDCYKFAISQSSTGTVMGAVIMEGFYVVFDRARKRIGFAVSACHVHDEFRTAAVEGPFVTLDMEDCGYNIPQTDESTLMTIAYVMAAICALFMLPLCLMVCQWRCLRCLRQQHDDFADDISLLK

Take `C=CC[C@H](NC(=O)[C@H](C)OC)[C@H](O)CN[C@H]1CC2(CCC2)Oc2ncc(CC(C)(C)C)cc21` [Example 95, (2S)-N-((1S)-1-((1R)-2-(((4′S)-6′-(2,2-dimethylpropyl)-3′,4′-dihydrospiro[cyclobutane-1,2′-pyrano[2,3-b]pyridin]-4′-yl)amino)-1-hydroxyethyl)-3-buten-1-yl)-2-(methyloxy)propanamide]: the figures for the IC50 (at BACE1; in assay [1] (setting [2])) were 145 nM and 637 nM, respectively.

Regarding `C=CC[C@H](NC(=O)[C@@H]1CC1(F)F)[C@H](O)CN[C@H]1CC2(CCC2)Oc2ncc(CC(C)(C)C)cc21` [Example 140, (1S)-N-((1S)-1-((1R)-2-(((4′S)-6′-(2,2-dimethylpropyl)-3′,4′-dihydrospiro[cyclobutane-1,2′-pyrano[2,3-b]pyridin]-4′-yl)amino)-1-hydroxyethyl)-3-buten-1-yl)-2,2-difluorocyclopropanecarboxamide], the values for the IC50 (at BACE1; in assay [1] (setting [2])) were 382 nM and 331 nM, respectively.

Consider `C=CC[C@H](NC(=O)c1ccccc1F)[C@H](O)CN[C@H]1CC2(CCC2)Oc2ncc(CC(C)(C)C)cc21` [Example 99, N-((1S)-1-((1R)-2-(((4′S)-6′-(2,2-dimethylpropyl)-3′,4′-dihydrospiro[cyclobutane-1,2′-pyrano[2,3-b]pyridin]-4′-yl)amino)-1-hydroxyethyl)-3-buten-1-yl)-2-fluorobenzamide], for which the figures for the IC50 (on BACE1; in assay [1] (setting [2])) were 339 nM and 1460 nM, respectively.

`C=CC[C@H](NC(=O)c1cc(F)cc(F)c1)[C@H](O)CN[C@H]1CC2(CCC2)Oc2ncc(CC(C)(C)C)cc21` [Example 61, N-((1S)-1-((1R)-2-(((4′S)-6′-(2,2-dimethylpropyl)-3′,4′-dihydrospiro[cyclobutane-1,2′-pyrano[2,3-b]pyridin]-4′-yl)amino)-1-hydroxyethyl)-3-buten-1-yl)-3,5-difluorobenzamide]: the IC50 worked out at 5 nM on BACE1 and 29.1 nM in assay [1] (setting [2]).

Take `C=CC[C@H](NC(=O)COC)[C@H](O)CN[C@H]1CC2(CCC2)Oc2c1cc(CC(C)(C)C)nc2N(C)C` [Example 48, N-((1S)-1-((1R)-2-(((4′S)-8′-(dimethylamino)-6′-(2,2-dimethylpropyl)-3′,4′-dihydrospiro[cyclobutane-1,2′-pyrano[2,3-c]pyridin]-4′-yl)amino)-1-hydroxyethyl)-3-buten-1-yl)-2-(methyloxy)acetamide]: the IC50 at BACE1 was 365 nM; in assay [1] (setting [2]) it was 2820 nM.

Take `C=CC[C@H](NC(=O)c1ccc2c(c1)OCO2)[C@H](O)CN[C@H]1CC2(CCC2)Oc2ncc(CC(C)(C)C)cc21` [Example 102, N-((1S)-1-((1R)-2-(((4′S)-6′-(2,2-dimethylpropyl)-3′,4′-dihydrospiro[cyclobutane-1,2′-pyrano[2,3-b]pyridin]-4′-yl)amino)-1-hydroxyethyl)-3-buten-1-yl)-1,3-benzodioxole-5-carboxamide]: the figures for the IC50 (on BACE1; in assay [1] (setting [2])) were 75 nM and 707 nM, respectively.

Consider `C=CC[C@H](NC(=O)c1ccc(F)cc1F)[C@H](O)CN[C@H]1CC2(CCC2)Oc2ncc(CC(C)(C)C)cc21` [Example 70, N-((1S)-1-((1R)-2-(((4′S)-6′-(2,2-dimethylpropyl)-3′,4′-dihydrospiro[cyclobutane-1,2′-pyrano[2,3-b]pyridin]-4′-yl)amino)-1-hydroxyethyl)-3-buten-1-yl)-2,4-difluorobenzamide], for which the IC50 on BACE1 turned out to be 264 nM; in assay [1] (setting [2]), 526 nM.

Turning to `C=CC[C@H](NC(=O)[C@@H](C)OC)[C@H](O)CN[C@H]1CC2(CCC2)Oc2ncc(CC(C)C)cc21` [Example 42, (2R)-N-((1S)-1-((1R)-1-hydroxy-2-(((4′S)-6′-(2-methylpropyl)-3′,4′-dihydrospiro[cyclobutane-1,2′-pyrano[2,3-b]pyridin]-4′-yl)amino)ethyl)-3-buten-1-yl)-2-(methyloxy)propanamide], the IC50 is 99 nM at BACE1 and 269 nM in assay [1] (setting [2]).

With `C#CC[C@H](NC(=O)c1cc(F)cc(F)c1)[C@H](O)CN[C@H]1CC2(CCC2)Oc2ncc(CC(C)(C)C)cc21` [Example 36, N-((1S)-1-((1R)-2-(((4′S)-6′-(2,2-dimethylpropyl)-3′,4′-dihydrospiro[cyclobutane-1,2′-pyrano[2,3-b]pyridin]-4′-yl)amino)-1-hydroxyethyl)-3-butyn-1-yl)-3,5-difluorobenzamide], the IC50 stood at 228 nM on BACE1 and 4160 nM in assay [1] (setting [2]).

Consider `C=CCC(NC(=O)C1CC1OCC)C(O)CNC1CC2(CCC2)Oc2ncc(CC(C)(C)C)cc21` [Example 153, (1R,2R)-N-((1S)-1-((1R)-2-(((4′S)-6′-(2,2-dimethylpropyl)-3′,4′-dihydrospiro[cyclobutane-1,2′-pyrano[2,3-b]pyridin]-4′-yl)amino)-1-hydroxyethyl)-3-buten-1-yl)-2-(ethyloxy)cyclopropanecarboxamide; (1S,2S)-N-((1S)-1-((1R)-2-(((4′S)-6′-(2,2-dimethylpropyl)-3′,4′-dihydrospiro[cyclobutane-1,2′-pyrano[2,3-b]pyridin]-4′-yl)amino)-1-hydroxyethyl)-3-buten-1-yl)-2-(ethyloxy)cyclopropanecarboxamide], for which the IC50 was 104 nM at BACE1 and 129 nM in assay [1] (setting [2]).

In the case of `CCC[C@H](NC(C)=O)[C@H](O)CN[C@H]1CC2(CCC2)Oc2ncc(CC(C)(C)C)cc21` [Example 43, N-((1S)-1-((1R)-2-(((4′S)-6′-(2,2-dimethylpropyl)-3′,4′-dihydrospiro[cyclobutane-1,2′-pyrano[2,3-b]pyridin]-4′-yl)amino)-1-hydroxyethyl)butyl)acetamide], the IC50 at BACE1 was 83 nM; in assay [1] (setting [2]) it was 167 nM.

For the compound `C=CCC(NC(=O)C1CN(C(C)=O)CCO1)C(O)CNC1CC2(CCC2)Oc2ncc(CC(C)(C)C)cc21` [Example 155, (2R)-4-acetyl-N-((1S)-1-((1R)-2-(((4′S)-6′-(2,2-dimethylpropyl)-3′,4′-dihydrospiro[cyclobutane-1,2′-pyrano[2,3-b]pyridin]-4′-yl)amino)-1-hydroxyethyl)-3-buten-1-yl)-2-morpholinecarboxamide; (2S)-4-acetyl-N-((1S)-1-((1R)-2-(((4′S)-6′-(2,2-dimethylpropyl)-3′,4′-dihydrospiro[cyclobutane-1,2′-pyrano[2,3-b]pyridin]-4′-yl)amino)-1-hydroxyethyl)-3-buten-1-yl)-2-morpholinecarboxamide], the IC50 stood at 49 nM on BACE1 and 60 nM in assay [1] (setting [2]).

For the compound `C=CC[C@H](NC(=O)[C@H](F)C(F)(F)F)[C@H](O)CN[C@H]1CC2(CCC2)Oc2ncc(CC(C)(C)C)cc21` [Example 138, (2S)-N-((1S)-1-((1R)-2-(((4′S)-6′-(2,2-dimethylpropyl)-3′,4′-dihydrospiro[cyclobutane-1,2′-pyrano[2,3-b]pyridin]-4′-yl)amino)-1-hydroxyethyl)-3-buten-1-yl)-2,3,3,3-tetrafluoropropanamide], the IC50 was 115 nM on BACE1 and 194 nM in assay [1] (setting [2]).

In the case of `CC=CC[C@H](NC(C)=O)[C@H](O)CN[C@H]1CC2(CC(F)C2)Oc2ncc(CC(C)(C)C)cc21` (stereo partly drawn) [Example 109, N-((1S)-1-((1R)-2-(((1s,3S,4′S)-6′-(2,2-dimethylpropyl)-3-fluoro-3′,4′-dihydrospiro[cyclobutane-1,2′-pyrano[2,3-b]pyridin]-4′-yl)amino)-1-hydroxyethyl)-3-penten-1-yl)acetamide], the IC50 on BACE1 came to 37 nM; in assay [1] (Aβ40 in conditioned medium after 24 h incubation), 62 nM.

In the case of `C=CC[C@H](NC(=O)[C@@H](C)OC)[C@H](O)CN[C@H]1CC2(CCC2)Oc2nc(F)c(CC(C)C)cc21` [Example 127, (2R)-N-((1S)-1-((1R)-2-(((4′S)-7′-fluoro-6′-(2-methylpropyl)-3′,4′-dihydrospiro[cyclobutane-1,2′-pyrano[2,3-b]pyridin]-4′-yl)amino)-1-hydroxyethyl)-3-buten-1-yl)-2-(methyloxy)propanamide], the IC50 on BACE1 was 445 nM; in assay [1] (setting [2]) it was 207 nM.

For `C=CC[C@H](NC(=O)C1COC(c2ccccn2)O1)[C@H](O)CNC1CC2(CCC2)Oc2ncc(CC(C)(C)C)cc21` (stereo partly drawn) [compound 242, N-((1S)-1-((1R)-2-((6′-(2,2-dimethylpropyl)-3′,4′-dihydrospiro[cyclobutane-1,2′-pyrano[2,3-b]pyridin]-4′-yl)amino)-1-hydroxyethyl)-3-buten-1-yl)-2-(2-pyridinyl)-1,3-dioxolane-4-carboxamide], the IC50 was determined as 3830 nM on BACE1 (read-out: BACE 1 FRET assay) and 691 nM in assay [1] (Homo sapiens, HEK293).

Take `C=CC[C@H](NC(=O)[C@@H](CC)OC)[C@H](O)CN[C@H]1CC2(CCC2)Oc2ncc(CC(C)(C)C)cc21` [Example 146, (2R)-N-((1S)-1-((1R)-2-(((4′S)-6′-(2,2-dimethylpropyl)-3′,4′-dihydrospiro[cyclobutane-1,2′-pyrano[2,3-b]pyridin]-4′-yl)amino)-1-hydroxyethyl)-3-buten-1-yl)-2-(methyloxy)butanamide]: the IC50 at BACE1 amounted to 565 nM; in assay [1] (setting [2]), 247 nM.

As to `C=CCC(NC(=O)C1CN(C(=O)C(C)C)CCO1)C(O)CNC1CC2(CCC2)Oc2ncc(CC(C)(C)C)cc21` (centres unmarked) [Example 156], the IC50 on BACE1 is 28 nM; in assay [1] (setting [2]), 33 nM.

For `C=CC[C@H](NC(=O)[C@H](F)c1ccccc1)[C@H](O)CN[C@H]1CC2(CCC2)Oc2ncc(CC(C)(C)C)cc21` [Example 143, (2R)-N-((1S)-1-((1R)-2-(((4′S)-6′-(2,2-dimethylpropyl)-3′,4′-dihydrospiro[cyclobutane-1,2′-pyrano[2,3-b]pyridin]-4′-yl)amino)-1-hydroxyethyl)-3-buten-1-yl)-2-fluoro-2-phenylethanamide], the IC50 on BACE1 came out at 2890 nM; in assay [1] (setting [2]) it was 539 nM.
